Assay results: patent publication US10202365B2, “2-(pyridin-3-yl)-pyrimidine derivatives as RET inhibitors” (BLUEPRINT MEDICINES CORPORATION, priority 2015, dated 2019)
pIC50: −log10 of the molar value.

Target: wild type RET (Homo sapiens (Human), UniProt P07949)
Assay: RET Wild Type Assay at KM (Caliper electrophoretic mobility shift)
Type: biochemical
Conditions: 25 μM ATP, 25° C., 120 minutes

wild type RET, sequence (P07949 29-1114): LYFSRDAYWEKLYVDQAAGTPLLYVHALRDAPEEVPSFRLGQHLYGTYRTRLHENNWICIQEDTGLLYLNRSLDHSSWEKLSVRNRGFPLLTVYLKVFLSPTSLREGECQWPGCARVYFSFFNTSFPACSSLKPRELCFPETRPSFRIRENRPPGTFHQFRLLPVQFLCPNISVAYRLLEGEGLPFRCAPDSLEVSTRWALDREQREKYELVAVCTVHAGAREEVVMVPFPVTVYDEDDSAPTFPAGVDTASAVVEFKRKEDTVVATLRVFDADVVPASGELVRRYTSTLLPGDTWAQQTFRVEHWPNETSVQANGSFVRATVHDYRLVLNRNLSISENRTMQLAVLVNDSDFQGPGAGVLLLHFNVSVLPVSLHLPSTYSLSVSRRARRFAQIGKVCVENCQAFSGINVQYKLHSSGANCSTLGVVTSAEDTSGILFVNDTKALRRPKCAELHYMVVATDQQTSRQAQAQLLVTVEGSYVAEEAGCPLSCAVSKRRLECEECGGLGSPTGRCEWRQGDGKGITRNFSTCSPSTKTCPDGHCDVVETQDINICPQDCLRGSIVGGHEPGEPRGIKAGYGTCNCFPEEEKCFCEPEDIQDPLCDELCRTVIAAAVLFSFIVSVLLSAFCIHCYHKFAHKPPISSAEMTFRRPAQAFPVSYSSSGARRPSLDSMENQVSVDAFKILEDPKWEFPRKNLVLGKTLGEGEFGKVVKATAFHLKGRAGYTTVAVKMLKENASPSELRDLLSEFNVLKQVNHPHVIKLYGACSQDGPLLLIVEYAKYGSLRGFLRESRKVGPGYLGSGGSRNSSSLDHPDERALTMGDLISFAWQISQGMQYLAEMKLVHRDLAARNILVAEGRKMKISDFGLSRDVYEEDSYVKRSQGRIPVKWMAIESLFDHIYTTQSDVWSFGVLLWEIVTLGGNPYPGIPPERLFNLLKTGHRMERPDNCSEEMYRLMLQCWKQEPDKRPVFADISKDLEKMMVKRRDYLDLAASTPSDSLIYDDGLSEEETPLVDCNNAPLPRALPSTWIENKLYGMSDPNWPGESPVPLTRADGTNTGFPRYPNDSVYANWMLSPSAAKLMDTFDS

SMILES	pIC50
Cc1cc(Nc2cc(C)[nH]n2)nc(-c2cnc(C(=O)NCc3ccc(-n4cccn4)nc3)c(C)c2)n1 [Compound 19]	> 8.00
Cc1cc(Nc2cc(C)[nH]n2)nc(-c2cnc(C(=O)N[C@@H](C)c3ccc(-n4cc(F)cn4)nc3)c(F)c2)n1 [Compound 30, (S)-3-fluoro-N-(1-(6-(4-fluoro-1H-pyrazol-1-yl)pyridin-3-yl)ethyl)-5-(4-methyl-6-((5-methyl-1H-pyrazol-3-yl)amino)pyrimidin-2-yl)picolinamide]	> 8.00
Cc1cc(Nc2cc(C)[nH]n2)nc(-c2cnc(C(=O)N[C@@H](C)c3ccc(-n4cccn4)nc3)c(C)c2)n1 [Compound 23]	> 8.00
Cc1cc(Nc2cc(C)[nH]n2)nc(-c2ccc(C(=O)NCc3ccc(-n4cc(C5CC5)cn4)nc3)nc2)n1 [Compound 27]	7.00 to 8.00
Cc1cc(Nc2cc(C)[nH]n2)nc(-c2ccc(C(=O)NCc3ccc(-n4cc(C#N)cn4)nc3)nc2)n1 [Compound 22]	7.00 to 8.00
Cc1cc(Nc2cc(C)[nH]n2)nc(-c2ccc(C(=O)NCc3ccoc3)nc2)n1 [Compound 1]	7.00 to 8.00
Cc1ccc(CNC(=O)c2ccc(-c3nc(C)cc(Nc4cc(C)[nH]n4)n3)cn2)nc1 [Compound 7]	7.00 to 8.00
Cc1cc(Nc2cc(C)[nH]n2)nc(-c2cnc(C(=O)N[C@@H](C)c3ccc(-n4cc(F)cn4)nc3)c(C)c2)n1 [Compound 29, (S)—N-(1-(6-(4-fluoro-1H-pyrazol-1-yl)pyridin-3-yl)ethyl)-3-methyl-5-(4-methyl-6-((5-methyl-1H-pyrazol-3-yl)amino)pyrimidin-2-yl)picolinamide]	> 8.00
Cc1cc(Nc2cc(C)[nH]n2)nc(-c2ccc(C(=O)NCc3ccc(-n4ccc(C5CC5)n4)nc3)nc2)n1 [Compound 26]	> 8.00
CC[C@@H](NC(=O)c1ccc(-c2nc(C)cc(Nc3cc(C)[nH]n3)n2)cn1)c1ccc(-n2cc(F)cn2)nc1 [Compound 34]	> 8.00
Cc1cc(Nc2cc(C)[nH]n2)nc(-c2ccc(C(=O)NCc3ccc(-n4cc(CCO)cn4)nc3)nc2)n1 [Compound 28]	7.00 to 8.00
Cc1cc(Nc2cc(C)[nH]n2)nc(-c2ccc(C(=O)NCc3ccc(F)cc3)nc2)n1 [Compound 9]	7.00 to 8.00
Cc1cc(Nc2cc(C)[nH]n2)nc(-c2ccc(C(=O)NCc3ccc(Cl)cc3)nc2)n1 [Compound 11]	7.00 to 8.00
Cc1cc(Nc2cc(C)[nH]n2)nc(-c2ccc(C(=O)NCc3cnc(-n4cc(F)cn4)cn3)nc2)n1 [Compound 21]	> 8.00
Cc1cc(Nc2cc(C)[nH]n2)nc(-c2ccc(C(=O)NCc3ccc(-n4cc(C(F)F)c(C)n4)nc3)nc2)n1 [Compound 32]	7.00 to 8.00

Now from value to compound:

pIC50	SMILES
< 7.00	Cc1cc(Nc2cc(C)[nH]n2)nc(-c2ccc(C(=O)N[C@H](C)c3ccccc3)nc2)n1 [Compound 6]
< 7.00	Cc1cc(Nc2cc(C)[nH]n2)nc(-c2ccc(C(=O)NCc3cncs3)nc2)n1 [Compound 3]
7.00 to 8.00	Cc1cc(Nc2cc(C)[nH]n2)nc(-c2ccc(C(=O)N3Cc4ccccc4C3)nc2)n1 [Compound 4]
< 7.00	Cc1cc(Nc2cc(C)[nH]n2)nc(-c2ccc(C(=O)NCc3cccc(F)c3)nc2)n1 [Compound 8]
7.00 to 8.00	Cc1ccc(CNC(=O)c2ccc(-c3nc(C)cc(Nc4cc(C)[nH]n4)n3)cn2)cc1 [Compound 5]
> 8.00	Cc1cc(Nc2cc(C)[nH]n2)nc(-c2ccc(C(=O)NCc3ccc(-n4nc(C)cc4C)nc3)nc2)n1 [Compound 24]
< 7.00	CCOc1ccc([C@H](C)NC(=O)c2ncc(-c3nc(C)cc(Nc4cc(C)[nH]n4)n3)cc2C)cc1 [Compound 17]
> 8.00	Cc1cnn(-c2ccc(CNC(=O)c3ccc(-c4nc(C)cc(Nc5cc(C)[nH]n5)n4)cn3)cn2)c1 [Compound 18]
7.00 to 8.00	CCOc1ccc(CNC(=O)c2ncc(-c3nc(C)cc(Nc4cc(C)[nH]n4)n3)cc2C)cc1 [Compound 13]
7.00 to 8.00	Cc1cc(Nc2cc(C)[nH]n2)nc(-c2ccc(C(=O)NCc3ccc(-n4cc(C(F)F)cn4)nc3)nc2)n1 [Compound 31]
< 7.00	CCOc1ccc([C@@H](C)NC(=O)c2ncc(-c3nc(C)cc(Nc4cc(C)[nH]n4)n3)cc2C)cc1 [Compound 16]
> 8.00	Cc1cc(Nc2cc(C)[nH]n2)nc(-c2ccc(C(=O)N[C@@H](C)c3ccc(-n4cc(F)cn4)nc3)nc2)n1 [Compound 25, (S)—N-(1-(6-(4-fluoro-1H-pyrazol-1-yl)pyridin-3-yl)ethyl)-5-(4-methyl-6-((5-methyl-1H-pyrazol-3-yl)amino)pyrimidin-2-yl)picolinamide]
